In patent publication US7585859B2, “PDE4B inhibitors and uses therefor” (Plexxikon, Inc., priority 2004, dated 2009):
Like-named read-outs stand apart in the source and are kept apart here.

How the values were obtained:
Assay type in all cases: biochemical
PDE4D = target: T1, PDE4D (Homo sapiens, UniProt Q08499); assay: PDE4 IC50 determination by Scintillation Proximity Assay, PDE4D
T1 construct: PDE4D: The catalytic domain of human PDE4B from S3 16-V692; His6 (N); thrombin cleavage site (N); made in house; host or cells: E. coli
How it was run: (§1)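 Enzyme was added to compound and [^3H]cAMP, then incubated 30 min at 30° (PDE4B 80 ng/ml; PDE4D 4 ng/ml). Product [^3H]AMP bound to SPA beads and was counted. IC50 was fitted by non-linear regression against DMSO and roflumilast controls.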

[1] = target: T2, full-length human PDE4B2 isozyme (Homo sapiens, UniProt Q07343); assay: PDE4 IC50 determination by Scintillation Proximity Assay, PDE4B2
T2 construct: The full-length human PDE4B2 isozyme; His6 (N); TEV cleavage site (N); made in house; host or cells: baculovirus infected insect cells (unpurified lysate)
Method: (§2) IC50s were determined by Scintillation Proximity Assay (SPA). The principle of the assay is based on the fact that cAMP, the PDE4 substrate, binds weakly to Yittrium Silicate SPA beads, whereas AMP, the product of PDE4 hydrolysis binds strongly. Thus, the extent of PDE4 hydrolysis of a sample of [^3H]cAMP can be measured because only the
(§3) [^3H]AMP produced by PDE4 hydrolysis will bind to the SPA beads and produce a scintillation signal.
(§4) PDE4 enzymes used for IC50 assays were:
PDE4B2: The full-length human PDE4B2 isozyme with an N-terminal His6 tag (SEQ ID NO: 18) and TEV cleavage site expressed in baculovirus infected insect cells. The enzyme was not purified from the cell lysates, so enzyme concentrations were not determined. Enzyme was stored in 50% glycerol at −20°.
(§5) Compounds tested (see Tables 3B, 4B and 5A for compounds and results) were 3-fold serially diluted 11 times in DMSO from a starting concentration of 4 mM or 40 μM, depending on compound potency. 1 μl of each dilution was transferred into duplicate wells of a white polystyrene 384-well assay plate (Coming #3705). In addition to the compound dilutions, each assay plate contained control wells with 1 μl of DMSO (to define 0% enzyme inhibition) or 1 μl of 200 μM roflumilast (to define 100% enzyme inhibition). Using a Beckman FX robot, 10 μl of [^3H] cAMP (Amersham TRK559) at 2 mCi/ml in assay buffer (50 mM Tris, pH 7.5; 8.3 mM MgCl; 1.7 mM EGTA; 0.01% BSA) was transferred to each assay well. Next, 10 μl of PDE4 enzyme in assay buffer was added and the plates were shaken for 30 s. at 1000 rpm to start the cAMP hydrolysis reaction. The concentrations of enzyme used were: PDE4B, 80 ng/ml; PDE4D, 4 ng/ml; PDE4B2, 2.5 μl of 50% glycerol stock/ml; PDE4D5 0.083 μl of 50% glycerol stock/ml. Assay plates were covered and incubated for 30 min. at 30°. Reactions were stopped by robotic addition of 10 μl of 5 mg/ml SPA beads (Amersham RPNQ0013) in 18 mM ZnSO4. The assay plates were covered with clear plastic film, centrifuged for 1 min. at 1000 RPM to settle the SPA beads, and counted using a Wallac TriLux scintillation counter. IC50's were calculated from the raw assay data by non-linear regression curve fitting using the Assay Explorer software package from MDL.

[2] = target: T3, PDE4B: The catalytic domain of human PDE4B from S152-S528 (Homo sapiens, UniProt Q07343); assay: PDE4 IC50 determination by Scintillation Proximity Assay, PDE4B
T3 construct: His6 (N); thrombin cleavage site (N); made in house; host or cells: E. coli
How it was run: as §1

[3] = target: T4, full-length human PDE4D5 isozyme (Homo sapiens, UniProt Q08499); assay: PDE4 IC50 determination by Scintillation Proximity Assay, PDE4D5; conditions: Table 1B, Formula I compounds; read-out: IC50 PDE4D5
T4 construct: The full-length human PDE4D5 isozyme; His6 (N); TEV cleavage site (N); made in house; host or cells: baculovirus infected insect cells (unpurified lysate)
Method: as §2, §3, §4
PDE4D5: The full-length human PDE4D5 isozyme with an N-terminal His6 tag (SEQ ID NO: 18) and TEV cleavage site expressed in baculovirus infected insect cells. The enzyme was not purified from the cell lysates, so enzyme concentrations were not determined. Enzyme was stored in 50% glycerol at −20°.
as §5

[4] = Table 1B, Formula I compounds, read-out: IC50 PDE4D
[5] = Table 1B, Formula I compounds, read-out: IC50 PDE4B2
[6] = Table 1B, Formula I compounds, read-out: IC50 PDE4B
[7] = second part of Table 2B (2-23 to 2-103), column 5, column is PDE4D in first part, read-out: IC 50 vs. indicated assay h TNFα
[8] = second part of Table 2B (2-23 to 2-103), column 4, column is PDE4B2 in first part, read-out: IC 50 vs. indicated assay h TNFα
[9] = second part of Table 2B (2-23 to 2-103), column 3, column is PDE4B in first part, read-out: IC 50 vs. indicated assay h TNFα
[10] = Table 3A, Formula III compounds, read-out: IC50 PDE4D
[11] = Table 3A, Formula III compounds, read-out: IC50 PDE4B

T1 sequence (Q08499 380-756): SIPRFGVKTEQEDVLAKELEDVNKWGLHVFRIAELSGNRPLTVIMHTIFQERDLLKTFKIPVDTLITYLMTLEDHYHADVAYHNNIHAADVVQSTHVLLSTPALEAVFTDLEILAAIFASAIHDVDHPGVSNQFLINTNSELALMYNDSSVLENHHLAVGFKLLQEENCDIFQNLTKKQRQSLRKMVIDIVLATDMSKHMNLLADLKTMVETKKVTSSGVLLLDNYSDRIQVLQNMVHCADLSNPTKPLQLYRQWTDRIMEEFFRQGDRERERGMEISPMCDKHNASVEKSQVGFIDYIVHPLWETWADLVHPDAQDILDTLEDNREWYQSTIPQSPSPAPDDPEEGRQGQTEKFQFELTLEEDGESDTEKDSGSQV
T3 sequence (Q07343 with tags, fused parts or gaps): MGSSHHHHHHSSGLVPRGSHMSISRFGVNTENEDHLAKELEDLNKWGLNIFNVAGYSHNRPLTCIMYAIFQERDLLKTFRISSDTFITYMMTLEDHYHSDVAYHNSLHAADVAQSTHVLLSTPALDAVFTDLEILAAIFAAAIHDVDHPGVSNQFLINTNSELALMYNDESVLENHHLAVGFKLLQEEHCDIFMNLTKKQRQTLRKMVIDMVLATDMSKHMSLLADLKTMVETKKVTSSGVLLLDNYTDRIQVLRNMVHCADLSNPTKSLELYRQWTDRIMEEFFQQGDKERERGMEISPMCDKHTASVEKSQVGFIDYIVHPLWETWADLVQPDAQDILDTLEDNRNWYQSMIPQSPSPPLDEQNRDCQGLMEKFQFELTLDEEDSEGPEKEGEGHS
T4 sequence (Q08499 1-745 isoform Q08499-6): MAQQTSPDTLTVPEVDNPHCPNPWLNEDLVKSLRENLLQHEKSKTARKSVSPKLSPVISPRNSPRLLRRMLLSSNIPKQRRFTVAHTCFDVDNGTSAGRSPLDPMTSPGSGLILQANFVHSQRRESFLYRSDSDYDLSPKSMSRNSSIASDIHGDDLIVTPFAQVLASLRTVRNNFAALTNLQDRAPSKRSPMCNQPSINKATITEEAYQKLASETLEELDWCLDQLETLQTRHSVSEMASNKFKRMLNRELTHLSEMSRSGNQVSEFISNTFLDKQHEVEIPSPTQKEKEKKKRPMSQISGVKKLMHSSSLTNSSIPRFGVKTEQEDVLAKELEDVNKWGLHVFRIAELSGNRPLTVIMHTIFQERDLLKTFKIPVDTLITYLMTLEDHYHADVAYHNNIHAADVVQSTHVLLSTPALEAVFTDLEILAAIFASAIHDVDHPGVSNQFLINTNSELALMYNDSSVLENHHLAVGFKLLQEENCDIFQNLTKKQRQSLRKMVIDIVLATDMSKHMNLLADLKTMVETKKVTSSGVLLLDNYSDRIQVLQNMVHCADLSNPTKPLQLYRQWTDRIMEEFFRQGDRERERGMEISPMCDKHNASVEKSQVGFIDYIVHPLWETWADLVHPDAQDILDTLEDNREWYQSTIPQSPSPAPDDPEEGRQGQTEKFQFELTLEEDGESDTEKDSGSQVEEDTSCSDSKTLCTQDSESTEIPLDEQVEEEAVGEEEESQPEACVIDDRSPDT
T2 sequence (Q07343 1-564 isoform Q07343-2): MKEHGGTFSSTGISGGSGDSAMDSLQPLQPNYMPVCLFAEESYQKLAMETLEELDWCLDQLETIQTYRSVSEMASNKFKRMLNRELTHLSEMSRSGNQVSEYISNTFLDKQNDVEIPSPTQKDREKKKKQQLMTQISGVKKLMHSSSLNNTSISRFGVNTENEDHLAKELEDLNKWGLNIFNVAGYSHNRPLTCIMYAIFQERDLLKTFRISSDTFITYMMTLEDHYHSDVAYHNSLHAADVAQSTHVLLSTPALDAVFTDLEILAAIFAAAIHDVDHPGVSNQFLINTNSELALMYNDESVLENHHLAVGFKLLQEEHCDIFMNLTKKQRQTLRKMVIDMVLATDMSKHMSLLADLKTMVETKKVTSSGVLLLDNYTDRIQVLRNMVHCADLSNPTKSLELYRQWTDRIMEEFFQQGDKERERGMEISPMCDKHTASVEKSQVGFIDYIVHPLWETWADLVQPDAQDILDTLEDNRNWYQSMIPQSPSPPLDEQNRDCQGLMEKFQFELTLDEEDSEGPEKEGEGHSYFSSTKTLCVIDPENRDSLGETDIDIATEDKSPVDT

Row | Compound | IC50 (PDE4D; [10]) [µM] | IC50 [2, 11] [µM] | also measured
1 | N#Cc1c(Nc2ccc(C(=O)NC3CCOC3=O)cc2)sc(C(=O)c2cc(-c3ccccc3)no2)c1N (stereo not drawn) [Compound 1-142, 4-[4-Amino-3-cyano-5-(3-phenyl-isoxazole-5-carbonyl)-thiophen-2-ylamino]-N-(2-oxo-tetrahydro-furan-3-yl)-benzamide] |  |  | IC50 (PDE4D; [4]): < 10 µM; IC50 [1, 5]: < 10 µM; IC50 [2, 6]: < 10 µM
2 | COc1ccc(Nc2sc(C(=O)c3cc(-c4ccc(Cl)cc4Cl)no3)c(N)c2C#N)cc1 [Compound 1-164, 4-Amino-5-[3-(2,4-dichloro-phenyl)-isoxazole-5-carbonyl]-2-(4-methoxy-phenylamino)-thiophene-3-carbonitrile] |  |  | IC50 (PDE4D; [4]): < 10 µM; IC50 [3]: > 10 µM; IC50 [2, 6]: < 10 µM
3 | CC(C)NC(=O)c1cc(C(=O)c2sc(NC3CCCC3)c(C#N)c2N)on1 [Compound 1-189, 5-(3-Amino-4-cyano-5-cyclopentylamino-thiophene-2-carbonyl)-isoxazole-3-carboxylic acid isopropylamide] |  |  | IC50 (PDE4D; [4]): < 10 µM; IC50 [3]: < 10 µM; IC50 [2, 6]: < 10 µM
4 | N#Cc1c(NC2CCCC2)sc(C(=O)c2cc(C(=O)NC3CC3)no2)c1N [Compound 1-190, 5-(3-Amino-4-cyano-5-cyclopentylamino-thiophene-2-carbonyl)-isoxazole-3-carboxylic acid cyclopropylamide] |  |  | IC50 (PDE4D; [4]): < 10 µM; IC50 [3]: < 10 µM; IC50 [2, 6]: < 10 µM
5 | N#Cc1c(Nc2ccc(Oc3ccccc3)cc2)sc(C(=O)C2CCCC2)c1N [Compound 1-195, 4-Amino-5-cyclopentanecarbonyl-2-(4-phenoxy-phenylamino)-thiophene-3-carbonitrile] |  |  | IC50 [3]: < 10 µM; IC50 [2, 6]: < 10 µM
6 | Nc1c(C(=O)c2cc(-c3ccccc3)no2)sc(NC2CCCC2)c1C(=O)O [Compound 1-237, 4-Amino-2-cyclopentylamino-5-(3-phenyl-isoxazole-5-carbonyl)-thiophene-3-carboxylic acid] |  |  | IC50 [1, 5]: < 10 µM; IC50 [3]: < 10 µM; IC50 [2, 6]: < 10 µM
7 | Cc1c(Nc2ccccc2)sc(C(=O)c2ccc(Cl)cc2)c1N [Compound 1-238, (3-Amino-4-methyl-5-phenylamino-thiophen-2-yl)-(4-chloro-phenyl)-methanone] |  |  | IC50 [1, 5]: < 10 µM; IC50 [3]: < 10 µM; IC50 [2, 6]: < 10 µM
8 | CC(C)C(C)Nc1sc(C(=O)c2cc(-c3ccc(Cl)c(Cl)c3)no2)c(N)c1C#N (stereo not drawn) [Compound 1-246, 4-Amino-5-[3-(3,4-dichloro-phenyl)-isoxazole-5-carbonyl]-2-(1,2-dimethyl-propylamino)-thiophene-3-carbonitrile] |  |  | IC50 (PDE4D; [4]): > 10 µM; IC50 [3]: > 10 µM; IC50 [2, 6]: < 10 µM
9 | Nc1nc(Nc2c(Cl)cccc2Cl)sc1C(=O)c1ccccc1 [Compound 2-30, [4-Amino-2-(2,6-dichloro-phenylamino)-thiazol-5-yl]-phenyl-methanone] |  |  | IC50 (PDE4D; [7]): < 10 µM; IC50 [1, 8]: < 10 µM; IC50 [2, 9]: < 10 µM
10 | Nc1nc(Nc2ccc(Oc3ccccc3)cc2)sc1C(=O)c1ccccc1 [Compound 2-67, [4-Amino-2-(4-phenoxy-phenylamino)-thiazol-5-yl]-phenyl-methanone] |  |  | IC50 [1, 8]: < 10 µM; IC50 [2, 9]: < 10 µM
11 | Nc1nc(Nc2ccc(Cl)cc2)sc1C(=O)C1CCCC1 [Compound 2-92, [4-Amino-2-(4-chloro-phenylamino)-thiazol-5-yl]-cyclopentyl-methanone] |  |  | IC50 (PDE4D; [7]): < 10 µM; IC50 [1, 8]: < 10 µM; IC50 [2, 9]: < 10 µM
12 | COC(=O)c1ccc(S(=O)(=O)Nc2c(C)ccc3cccnc23)o1 [Compound 3-43, 5-(7-Methyl-quinolin-8-ylsulfamoyl)-furan-2-carboxylic acid methyl ester] | > 10 | > 10 | 
13 | COC(=O)c1ccc(S(=O)(=O)Nc2cccc3cccnc23)o1 [Compound 3-44, 5-(Quinolin-8-ylsulfamoyl)-furan-2-carboxylic acid methyl ester] | > 10 | > 10 | 
14 | COC(=O)c1ccc(S(=O)(=O)Nc2cc(OC)cc3cccnc23)o1 [Compound 3-45, 5-(6-Methoxy-quinolin-8-ylsulfamoyl)-furan-2-carboxylic acid methyl ester] | > 10 | > 10 | 
15 | Cc1ccc(S(=O)(=O)Nc2cccc3cccnc23)cc1 [Compound 3-46, 4-Methyl-N-quinolin-8-yl-benzenesulfonamide] | > 10 | > 10 | 
16 | Cc1ccc(S(=O)(=O)Nc2ccc(Br)c3cccnc23)cc1 [Compound 3-47, N-(5-Bromo-quinolin-8-yl)-4-methyl-benzenesulfonamide] | > 10 | > 10 | 
17 | COc1cc(NS(=O)(=O)c2ccc(C)cc2)c2ncccc2c1 [Compound 3-48, N-(6-Methoxy-quinolin-8-yl)-4-methyl-benzenesulfonamide] | > 10 | > 10 | 
18 | COc1cc(NS(=O)(=O)c2cc(F)ccc2C)c2ncccc2c1 [Compound 3-49, 5-Fluoro-N-(6-methoxy-quinolin-8-yl)-2-methyl-benzenesulfonamide] | > 10 | > 10 | 
19 | COc1ccc(OC)c(S(=O)(=O)Nc2cc(OC)cc3cccnc23)c1 [Compound 3-51, 2,5-Dimethoxy-N-(6-methoxy-quinolin-8-yl)-benzenesulfonamide] | > 10 | > 10 | 
20 | COc1cc(NS(=O)(=O)c2ccc(C#N)cc2)c2ncccc2c1 [Compound 3-52, 4-Cyano-N-(6-methoxy-quinolin-8-yl)-benzenesulfonamide] | > 10 | > 10 | 
21 | COc1ccc(S(=O)(=O)Nc2cc(OC)cc3cccnc23)cc1 [Compound 3-53, 4-Methoxy-N-(6-methoxy-quinolin-8-yl)-benzenesulfonamide] | > 10 | > 10 | 
22 | COc1cc(NS(=O)(=O)Cc2ccccc2)c2ncccc2c1 [Compound 3-54, N-(6-Methoxy-quinolin-8-yl)-C-phenyl-methanesulfonamide] | > 10 | > 10 | 
23 | COc1cc(NS(=O)(=O)c2ccc(F)cc2)c2ncccc2c1 [Compound 3-55, 4-Fluoro-N-(6-methoxy-quinolin-8-yl)-benzenesulfonamide] | > 10 | > 10 | 
24 | COc1cc(NS(=O)(=O)c2cccc(F)c2)c2ncccc2c1 [Compound 3-56, 3-Fluoro-N-(6-methoxy-quinolin-8-yl)-benzenesulfonamide] | > 10 | > 10 | 
25 | COc1cc(NS(=O)(=O)c2ccccc2C)c2ncccc2c1 [Compound 3-57, N-(6-Methoxy-quinolin-8-yl)-2-methyl-benzenesulfonamide] | > 10 | > 10 | 
26 | COc1cc(NS(=O)(=O)c2cc(C)ccc2OC)c2ncccc2c1 [Compound 3-58, 2-Methoxy-N-(6-methoxy-quinolin-8-yl)-5-methyl-benzenesulfonamide] | > 10 | > 10 | 
27 | Cc1nccc(-c2cccc(S(=O)(=O)Nc3cccc4cccnc34)c2)n1 [Compound 3-66, 3-(2-Methyl-pyrimidin-4-yl)-N-quinolin-8-yl-benzenesulfonamide] | < 10 | < 10 | 
